# How the values were obtained:
# [1] = test system: Candida albicans (138); test: L-serine-aminopeptidase activity on gelled medium, Example 7; format: cell-based; conditions: 0.3 g/l, 18 to 24 hours
# Procedure: (§1) A gelled medium comprising L-seryl-9-(4-amino-phenyl)acridine (hereinafter referred to as L-Ser-4-APA) is prepared as follows: 30 milligrams of L-Ser-4-APA are added to 4 grams of Columbia agar, that are added to 0.1 liter of distilled water and then autoclaved. This reaction medium is autoclaved at 116° C. for 20 minutes.
# (§2) Microorganisms derived from the applicant's collection were seeded onto this medium using a suspension of 0.5 McFarland. The dishes were incubated at 37° C. for 24 hours. Samples of 10 μl of each suspension were cultured so as to produce colonies. The colonies formed were examined visually after incubation for 18 to 24 hours.
# (§3) The color of these colonies was noted before and after the addition of a drop of acetic acid, hereinafter referred to as GAA (glacial acetic acid).
# [2] = test system: Enterococcus faecalis (117); test: as above; format: cell-based; conditions: 0.3 g/l, 18 to 24 hours
# Procedure: as §1, §2, §3
# [3] = test system: Escherichia coli (009); test: as above; format: cell-based; conditions: 0.3 g/l, 18 to 24 hours
# Procedure: as §1, §2, §3
# [4] = test system: Klebsiella pneumoniae (012); test: as above; format: cell-based; conditions: 0.3 g/l, 18 to 24 hours
# Procedure: as §1, §2, §3
# [5] = test system: Staphylococcus aureus (008); test: as above; format: cell-based; conditions: 0.3 g/l, 18 to 24 hours
# Procedure: as §1, §2, §3
# [6] = test system: Yersinia enterocolitica (061); test: as above; format: cell-based; conditions: 0.3 g/l, 18 to 24 hours
# Procedure: as §1, §2, §3
# [7] = substrate dissolution in autoclaved Columbia agar medium; format: physicochemical; conditions: 30 milligrams with 4 grams of Columbia agar in 0.1 liter of distilled water, autoclaved at 116° C. for 20 minutes
# Procedure: as §1
# [8] = test system: Burkholderia cepacia (NCTC 10743); test: t-BOC-L-alanyl-L-alanyl-L-alanyl-peptidase activity on gelled medium, Example 11; format: cell-based; parameters: key to growth: ++ means good growth; + means moderate growth; +/− means poor growth; NG means no growth
# Procedure: (§4) A gelled medium comprising this substrate is prepared as follows: 30 mg of the substrate are dissolved (heating) in 10 ml of sterile distilled water. Ten ml of this solution are then added to 90 ml of Columbia agar, kept molten at 50° C.
# (§5) Various strains of microorganisms derived from the NCTC collection (National Collection of Type Cultures, Colindale, UK) were seeded onto the media thus obtained according to the multipoint inoculation described in example 8 above.
# (§6) The colonies formed were examined visually after incubation for 24 h and 48 h. The color and the growth of these colonies were noted.
# [9] = test system: Enterobacter cloacae (NCTC 11936); test: as above; format: cell-based; parameters: key to growth: ++ means good growth; + means moderate growth; +/− means poor growth; NG means no growth
# Procedure: as §4, §5, §6
# [10] = test system: Enterococcus faecalis (NCTC 12697); test: as above; format: cell-based; parameters: key to growth: ++ means good growth; + means moderate growth; +/− means poor growth; NG means no growth
# Procedure: as §4, §5, §6
# [11] = test system: Enterococcus faecium (NCTC 7171); test: as above; format: cell-based; parameters: key to growth: ++ means good growth; + means moderate growth; +/− means poor growth; NG means no growth
# Procedure: as §4, §5, §6
# [12] = test system: Escherichia coli O157 (NCTC 12079); test: as above; format: cell-based; parameters: key to growth: ++ means good growth; + means moderate growth; +/− means poor growth; NG means no growth
# Procedure: as §4, §5, §6
# [13] = test system: Klebsiella pneumonia (NCTC 10896); test: as above; format: cell-based; parameters: key to growth: ++ means good growth; + means moderate growth; +/− means poor growth; NG means no growth
# Procedure: as §4, §5, §6
# [14] = test system: Listeria monocytogenes (NCTC 11994); test: as above; format: cell-based; parameters: key to growth: ++ means good growth; + means moderate growth; +/− means poor growth; NG means no growth
# Procedure: as §4, §5, §6
# [15] = test system: Pseudomonas aeruginosa (NCTC 10662); test: as above; format: cell-based; parameters: key to growth: ++ means good growth; + means moderate growth; +/− means poor growth; NG means no growth
# Procedure: as §4, §5, §6
# [16] = test system: Salmonella poona (NCTC 4840); test: as above; format: cell-based; parameters: key to growth: ++ means good growth; + means moderate growth; +/− means poor growth; NG means no growth
# Procedure: as §4, §5, §6
# [17] = test system: Salmonella typhimurium (NCTC 74); test: as above; format: cell-based; parameters: key to growth: ++ means good growth; + means moderate growth; +/− means poor growth; NG means no growth
# Procedure: as §4, §5, §6
# [18] = test system: Serratia marcescens (NCTC 10211); test: as above; format: cell-based; parameters: key to growth: ++ means good growth; + means moderate growth; +/− means poor growth; NG means no growth
# Procedure: as §4, §5, §6
# [19] = test system: Shigella sonnei (NCTC 9774); test: as above; format: cell-based; parameters: key to growth: ++ means good growth; + means moderate growth; +/− means poor growth; NG means no growth
# Procedure: as §4, §5, §6
# [20] = test system: Staphylococcus aureus (NCTC 11939); test: as above; format: cell-based; parameters: key to growth: ++ means good growth; + means moderate growth; +/− means poor growth; NG means no growth
# Procedure: as §4, §5, §6
# [21] = test system: Enterococcus faecalis (NCTC 755); test: as above; format: cell-based; parameters: key: ++ means good growth; + means moderate growth; +/− means poor growth; NG means no growth
# Procedure: as §4, §5, §6
# [22] = test system: Staphylococcus aureus (NCTC 6571); test: as above; format: cell-based; parameters: key: ++ means good growth; + means moderate growth; +/− means poor growth; NG means no growth
# Procedure: as §4, §5, §6
structure (smiles),measurement,setting,value
"N[C@@H](CO)C(=O)Nc1ccc(-c2c3ccccc3nc3ccccc23)cc1 [L-Ser-4-APA, L-Seryl-9-(4-aminophenyl)acridine]",Color,[1]; after GAA,cream
same,Color,[1]; before GAA,cream
same,Color,[2]; after GAA,cream
same,Color,[2]; before GAA,cream
same,Color,[3]; after GAA,pale orange
same,Intensity,[3]; after GAA,2
same,Color,[3]; before GAA,cream
same,Color,[4]; after GAA,pale orange
same,Intensity,[4]; after GAA,2
same,Color,[4]; before GAA,cream
same,Color,[5]; after GAA,cream
same,Color,[5]; before GAA,cream
same,Color,[6]; after GAA,pale orange
same,Intensity,[6]; after GAA,2
same,Color,[6]; before GAA,cream
same,substrate in solution in the medium,[7],Most of the substrate is in solution
"C[C@H](NC(=O)OC(C)(C)C)C(=O)N[C@@H](C)C(=O)N[C@@H](C)C(=O)Nc1ccc(-c2c3ccccc3[n+](C)c3ccccc23)cc1.[Cl-] [t-BOC-L-Ala-Ala-Ala-4-AP-10-MA, t-BOC-L-alanyl-L-alanyl-L-alanyl-9-(4-aminophenyl)-10-methylacridine]",color of colonies,[8]; 24 h,Orange
same,growth,[8]; 24 h,++
same,color of colonies,[8]; 48 h,Orange
same,growth,[8]; 48 h,++
same,color of colonies,[9]; 24 h,Orange
same,growth,[9]; 24 h,++
same,color of colonies,[9]; 48 h,Orange
same,growth,[9]; 48 h,++
same,color of colonies,[10]; 24 h,Colorless
same,growth,[10]; 24 h,+/−
same,color of colonies,[10]; 48 h,Colorless
same,growth,[10]; 48 h,+/−
same,color of colonies,[11]; 24 h,Colorless
same,growth,[11]; 24 h,+/−
same,color of colonies,[11]; 48 h,Colorless
same,growth,[11]; 48 h,++
same,color of colonies,[12]; 24 h,Pale orange
same,growth,[12]; 24 h,(++)
same,color of colonies,[12]; 48 h,Pale orange
same,growth,[12]; 48 h,++
same,color of colonies,[13]; 24 h,Orange
same,growth,[13]; 24 h,++
same,color of colonies,[13]; 48 h,Orange
same,growth,[13]; 48 h,++
same,color of colonies,[14]; 24 h,Colorless
same,growth,[14]; 24 h,+/−
same,color of colonies,[14]; 48 h,Colorless
same,growth,[14]; 48 h,+
same,color of colonies,[15]; 24 h,Pale orange
same,growth,[15]; 24 h,(++)
same,color of colonies,[15]; 48 h,Pale Orange
same,growth,[15]; 48 h,++
same,color of colonies,[16]; 24 h,Pale orange
same,growth,[16]; 24 h,(++)
same,color of colonies,[16]; 48 h,Pale orange
same,growth,[16]; 48 h,++
same,color of colonies,[17]; 24 h,Pale orange
same,growth,[17]; 24 h,(++)
same,color of colonies,[17]; 48 h,Pale orange
same,growth,[17]; 48 h,++
same,color of colonies,[18]; 24 h,Orange
same,growth,[18]; 24 h,++
same,color of colonies,[18]; 48 h,Orange
same,growth,[18]; 48 h,++
same,color of colonies,[19]; 24 h,Pale orange
same,growth,[19]; 24 h,(++)
same,color of colonies,[19]; 48 h,Pale orange
same,growth,[19]; 48 h,++
same,color of colonies,[20]; 24 h,Colorless
same,growth,[20]; 24 h,+
same,color of colonies,[20]; 48 h,Colorless
same,growth,[20]; 48 h,+
same,growth,[21]; 24 h,NG
same,growth,[21]; 48 h,NG
same,growth,[22]; 24 h,NG
same,growth,[22]; 48 h,NG

# Source: patent US7223865B2, “Chromogenic compounds, and use thereof as enzyme substrates” (Biomerieux, priority 2003, dated 2007)
